According to patent US9695155B2, “Herbicidal substituted pyrimidinyloxy benzene compounds” (E. I. DU PONT DE NEMOURS AND COMPANY, priority 2013, dated 2017):

Columns and labels:
large (Lg) crabgrass [1] = test: Test A preemergence; type: in vivo, Digitaria sanguinalis
In short: (§1)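 Pre- and postemergence greenhouse screen. Soil: loam + sand. Spray carrier: solvent mixture, non-phytotoxic, with surfactant. Post timing at 1–2 leaves, height 2–10 cm. Readout: visual injury on a 0–100 scale roughly 10 days after application, untreated plants as reference.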

pigweed [2] = test: Test A preemergence; type: in vivo, Amaranthus retroflexus
In short: as §1

velvetleaf [3] = test: Test A preemergence; type: in vivo, Abutilon theophrasti
In short: as §1

large (Lg) crabgrass [4] = test: Test A postemergence; type: in vivo, Digitaria sanguinalis; settings: 0 to 100 scale where 0 is no effect and 100 is complete control
In short: as §1

morningglory = test: Test A postemergence; type: in vivo, Ipomoea spp.; settings: 0 to 100 scale where 0 is no effect and 100 is complete control
In short: as §1

pigweed [5] = test: Test A postemergence; type: in vivo, Amaranthus retroflexus; settings: 0 to 100 scale where 0 is no effect and 100 is complete control
In short: as §1

velvetleaf [6] = test: Test A postemergence; type: in vivo, Abutilon theophrasti; settings: 0 to 100 scale where 0 is no effect and 100 is complete control
In short: as §1

corn [7] = test: Test A postemergence; type: in vivo, Zea mays; settings: 0 to 100 scale where 0 is no effect and 100 is complete control
In short: as §1

Italian ryegrass = test: Test C postemergence; type: in vivo, Lolium multiflorum
In short: (§2)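 Seeds are planted in blended loam soil and sand and treated preemergence, while seedlings in a peat moss/vermiculite medium receive postemergence sprays at 2 to 18 cm height. All plants stay in the greenhouse for 13 to 15 days before visual comparison with controls on a 0–100 scale.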

corn [8] = test: Test C postemergence; type: in vivo, Zea mays
In short: as §2

giant foxtail = test: Test C postemergence; type: in vivo, Setaria faberii
In short: as §2

johnsongrass = test: Test C postemergence; type: in vivo, Sorghum halepense
In short: as §2

pigweed [9] = test: Test C postemergence; type: in vivo, Amaranthus retroflexus
In short: as §2

soybean = test: Test C postemergence; type: in vivo, Glycine max
In short: as §2

barnyardgrass = test: Test C postemergence; type: in vivo, Echinochloa crus-galli; settings: scale 0 to 100 (0 no effect, 100 complete control)
In short: as §2

waterhemp = test: Test C postemergence; type: in vivo, Amaranthus rudis
In short: as §2

kochia = test: Test C postemergence; type: in vivo, Kochia scoparia
In short: as §2

wild oat = test: Test C postemergence; type: in vivo, Avena fatua
In short: as §2

[10] = 500 g ai/ha, 0 to 100 scale where 0 is no effect and 100 is complete control
[11] = 16 g ai/ha, postemergence, 0 is no effect, 100 is complete control
[12] = 31 g ai/ha, postemergence, visual rating, scale 0 to 100 (0 no effect, 100 complete control), 13 to 15 days
[13] = 125 g ai/ha, postemergence, visual rating, scale 0 to 100 (0 no effect, 100 complete control)
[14] = Postemergence, 62 g ai/ha, scale 0 to 100 (0 no effect, 100 complete control)

## Cc1cnc(Oc2cccc(C#N)c2-n2cc(C(F)(F)F)cn2)nc1 [Compound 180]
Large (Lg) crabgrass [1]; 125 g ai/ha
  Crabgrass, Large plant response rating (0 to 100 scale): 100
Large (Lg) crabgrass [1]; [10]
  Crabgrass, Large plant response rating: 100
Pigweed [2]; 125 g ai/ha
  Pigweed plant response rating (0 to 100 scale): 100
Pigweed [2]; [10]
  Pigweed plant response rating: 100
Velvetleaf [3]; 125 g ai/ha
  Velvetleaf plant response rating (0 to 100 scale): 100
Velvetleaf [3]; [10]
  Velvetleaf plant response rating: 100
Large (Lg) crabgrass [4]; 125 g ai/ha
  Crabgrass, Large plant response rating: 90
Large (Lg) crabgrass [4]; 500 g ai/ha
  Plant response rating, Crabgrass, Large: 90
morningglory; 125 g ai/ha
  Morningglory plant response rating: 100
morningglory; 500 g ai/ha
  Plant response rating, Morningglory: 100
Pigweed [5]; 125 g ai/ha
  Pigweed plant response rating: 100
Pigweed [5]; 500 g ai/ha
  Plant response rating, Pigweed: 100
Velvetleaf [6]; 125 g ai/ha
  Velvetleaf plant response rating: 100
Velvetleaf [6]; 500 g ai/ha
  Plant response rating, Velvetleaf: 100
Corn [7]; 125 g ai/ha
  Corn plant response rating: 70
Corn [7]; 500 g ai/ha
  Plant response rating, Corn: 90
Italian ryegrass; [11]
  Plant response rating (0 to 100), Ryegrass, Italian: 0
Italian ryegrass; [12]
  Ryegrass, Italian plant response rating: 0
Italian ryegrass; [13]
  Plant response rating, Ryegrass, Italian: 10
Italian ryegrass; [14]
  Plant response rating, Ryegrass, Italian: 5
Corn [8]; [11]
  Plant response rating (0 to 100), Corn: 0
Corn [8]; [12]
  Corn plant response rating: 5
Corn [8]; [13]
  Plant response rating, Corn: 10
Corn [8]; [14]
  Plant response rating, Corn: 5
Giant foxtail; [11]
  Plant response rating (0 to 100), Foxtail, Giant: 5
Giant foxtail; [12]
  Foxtail, Giant plant response rating: 5
Giant foxtail; [13]
  Plant response rating, Foxtail, Giant: 80
Giant foxtail; [14]
  Plant response rating, Foxtail, Giant: 10
johnsongrass; [11]
  Plant response rating (0 to 100), Johnsongrass: 0
johnsongrass; [12]
  Johnsongrass plant response rating: 0
johnsongrass; [13]
  Plant response rating, Johnsongrass: 5
johnsongrass; [14]
  Plant response rating, Johnsongrass: 0
Pigweed [9]; [11]
  Plant response rating (0 to 100), Pigweed: 10
Pigweed [9]; [12]
  Pigweed plant response rating: 55
Pigweed [9]; [13]
  Plant response rating, Pigweed: 70
Pigweed [9]; [14]
  Plant response rating, Pigweed: 60
soybean; [11]
  Plant response rating (0 to 100), Soybean: 85
soybean; [12]
  Soybean plant response rating: 85
soybean; [13]
  Plant response rating, Soybean: 95
soybean; [14]
  Plant response rating, Soybean: 98
barnyardgrass; 31 g ai/ha, postemergence, visual rating, 13 to 15 days
  Barnyardgrass plant response rating: 5
barnyardgrass; 125 g ai/ha, postemergence, visual rating
  Plant response rating, Barnyardgrass: 20
barnyardgrass; Postemergence, 62 g ai/ha
  Plant response rating, Barnyardgrass: 5
waterhemp; [11]
  Plant response rating (0 to 100), Waterhemp: 25
waterhemp; [12]
  Waterhemp plant response rating: 60
waterhemp; [13]
  Plant response rating, Waterhemp: 75
waterhemp; [14]
  Plant response rating, Waterhemp: 70
kochia; [11]
  Plant response rating (0 to 100), Kochia: 40
kochia; [12]
  Kochia plant response rating: 50
kochia; [13]
  Plant response rating, Kochia: 60
kochia; [14]
  Plant response rating, Kochia: 50
Wild oat; [11]
  Plant response rating (0 to 100), Oat, Wild: 5
Wild oat; [12]
  Oat, Wild plant response rating: 10
Wild oat; [13]
  Plant response rating, Oat, Wild: 30
Wild oat; [14]
  Plant response rating, Oat, Wild: 20
